US20220127297A1, “Novel Antibacterial 3"-Derivatives Of 4,6-Disubstituted 2,5-Dideoxystreptamine Aminoglycoside Antibiotics” (AGILeBiotics B.V., priority 2018, published 2022)
Values after ≈ are worked out from the molar mass of the structure shown. Where two headings read alike, the source gives them in different places.

Key:
E. faecalis DSM 2570 = test: MIC 50, broth micro-dilution, DSM strains; assay type: cell-based, Enterococcus faecalis
From the text: (§1) 3.2 Against Selected Bacteria of the ESKAPE Panel and Enterococcus faecalis (DSM Strains)
(§2) Tested reference compounds. Amikacin sulfate (Cat. No. 01693, Chem-Impex), Gentamicin sulfate (Cat. No. G4918, Sigma Aldrich).
(§3) Microbial strains. Enterococcus faecalis DSM 2570, Klebsiella pneumoniae DSM 26371, Acinetobacter baumannii DSM 105126, Enterobacter cloacae 3MRGN (clinical bronchial aspirate isolate).
(§4) Culture media and equipment. BBL™ Mueller Hinton Broth 2 (Lot. BCBW1143, Cat. No. 70192, Sigma); Trypcase Soy Blood-agar plates (Cat. No. 43001, Biomérieux); Cryoinstant (contains 15% glycerol; Cat. No. 822070ZA, VWR International); GasPak™ EZ Standard Incubation Container (Cat. No. 260671, Becton Dickinson); GasPak™ EZ Campy Container System Sachets (Cat. No. 260680, Becton Dickinson); 96-well deep well plate, 1 mL (Cat. No. 0030506.200, Eppendorf); Plate lid (Cat. No. 0030131.525, Eppendorf); 96-well plate, F-bottom (Cat. No. 260860, Nunc); Incubator (Sartorius Certomat BS-1); Laminar flow (Heraeus HS12); UV/VIS meter (Perkin Elmer Lambda Bio+); Platereader (Tecan Infinite M200 Pro).
(§5) Compound preparation. Compounds were prepared in MH2 media at a concentration of 5 mM and stored at 4° C. For testing, solutions of 128 μM were prepared in MH2, for tests against E. faecalis a solution of 512 μM was prepared. Out of these working solutions, 400 μL was transferred to wells in the first column of 96-well deep well plates. Each compound was transferred in triplicate. Plates were previously filled with 200 μL of MH2 media in all wells except for the wells in the first column. After compound and antibiotic addition, the compounds were serial two-fold diluted by transferring 200 μL from the first to the second column, then from the second to the third column and so on. Finally, 200 μL was removed from the last column.
(§6) Inoculum preparation. Microorganisms used were all revived from 15% glycerol storage in Croinstant tubes at −28° C. by plating them on blood agar plates. A. baumanni, and E. cloacae were grown aerobically at 37° C., E. faecalis was grown microaerophilically at 37° C., and K. pneumoniae was grown aerobically at 37° C. Plates were stored at 4° C. for up to two weeks, after which new plates were prepared from −28° C. A single colony was inoculated in MH2 media and grown at 37° C. and 200 rpm to an optical density (measured by UV/Vis spectroscopy) of 0.6-0.8 at 600 nm. Out of these suspensions, actual inoculums were prepared by diluting them to an optical density of 0.1 in MH2 media. From these inoculums, 200 μL was transferred to each well, resulting in a final compound concentration range of 64 μM-31.3 nM for, K. pneumoniae, A. baumanni, and E. cloacae, and 256 μM-125 nM for E. faecalis. Plates inoculated with E. faecalis were placed inside a GasPak™ Container System with GasPak™ Campy Container System sachets. All plates were incubated at 200 rpm for 18 h under the microorganism culturing conditions mentioned above.
(§7) MIC determination. After 18 h of growth, 200 μL was transferred to a 96-well F-bottom plate. The optical density was determined by a plate reader at 600 nm, with 10 s shaking before reading. Triplicate measurements were averaged, and a growth curve was plotted in Excel. The first column in which the growth reached half the value of maximum growth was determined as the MIC50 value for that particular compound.
(§8) MIC50. The MIC50 of a compound was assigned at which the bacterial growth reached half the value of maximum growth.

K. pneumoniae DSM 26371 = test: MIC 50, broth micro-dilution, DSM strains; assay type: cell-based, Klebsiella pneumoniae
From the text: as §1, §2, §3, §4, §5, §6, §7, §8

[1] = Enterococcus faecalis, DSM2570, read-out: MIC 50
[2] = Klebsiella pneumoniae, DSM26371, K. pneumoniae DSM 26371, read-out: MIC 50

| SMILES | MIC50 (E. faecalis DSM 2570; [1]) | MIC50 (K. pneumoniae DSM 26371; [2]) | MIC50 (E. faecalis DSM 2570) | MIC50 (K. pneumoniae DSM 26371; K. pneumoniae DSM 26371) |
| --- | --- | --- | --- | --- |
| N=C(NCC1CC1)NC1[C@@H](O)C(OC2[C@@H](F)[C@H](O[C@H]3OC(CN)[C@@H](O)CC3N)C(N)C[C@H]2NC(=O)[C@@H](O)CCN)O[C@H](CO)[C@H]1O (some centres unmarked) [ABX5027, Tobra-AHB-F-Gua cyclopropylmethyl] | 32 µM (≈ 21.3 µg/mL) | 0.125 µM (≈ 0.0833 µg/mL) |  |  |
| NCC[C@H](O)C(=O)N[C@@H]1CC(N)[C@@H](O[C@H]2OC(CN)[C@@H](O)[C@@H](O)C2N)[C@H](O)C1OC1O[C@H](CO)[C@@H](O)C(N)[C@H]1O (stereo partly drawn) [ABX4002, 3′Epi-KanaB-AHB] |  |  | 16 to 32 µM | 1 µM (≈ 0.585 µg/mL) |
| N=C(NCCCN)NC1[C@@H](O)C(OC2[C@@H](F)[C@H](O[C@H]3OC(CN)[C@@H](O)CC3N)C(N)C[C@H]2NC(=O)[C@@H](O)CCN)O[C@H](CO)[C@H]1O (some centres unmarked) [ABX5030, Tobra-AHB-F-Gua-3-amino-propyl] | 32 µM (≈ 21.4 µg/mL) | 0.125 µM (≈ 0.0837 µg/mL) |  |  |
| NCC[C@H](O)C(=O)N[C@@H]1CC(N)[C@@H](O[C@H]2OC(CN)[C@@H](O)CC2N)[C@H](O)C1OC1O[C@H](CO)[C@@H](O)C(N)[C@H]1O (some centres unmarked) [ABX5004, Tobra-AHB] |  |  | 32 µM (≈ 18.2 µg/mL) | 1 µM (≈ 0.569 µg/mL) |
| C[C@@H](N)CCNC(=N)NC1[C@@H](O)C(OC2[C@@H](F)[C@H](O[C@H]3OC(CN)[C@@H](O)CC3N)C(N)C[C@H]2NC(=O)[C@@H](O)CCN)O[C@H](CO)[C@H]1O (stereo partly drawn) [ABX5047, Tobra-AHB-F-Gua (R) 3-amino-butyl] | 2 to 4 µM (≈ 1.37 to 2.74 µg/mL) | 0.25 µM (≈ 0.171 µg/mL) |  |  |
| NCC[C@H](O)C(=O)N[C@@H]1CC(N)[C@@H](O[C@H]2OC(CN)[C@@H](O)[C@@H](O)C2N)[C@H](F)C1OC1O[C@H](CO)[C@@H](O)C(N)[C@H]1O (stereo partly drawn) [ABX4003, 3′Epi-KanaB-AHB-F] |  |  | 64 µM (≈ 37.5 µg/mL) | 0.5 µM (≈ 0.293 µg/mL) |
| CC(C)(C)CCNC(=N)NC1[C@@H](O)C(OC2[C@@H](F)[C@H](O[C@H]3OC(CN)[C@@H](O)CC3N)C(N)C[C@H]2NC(=O)[C@@H](O)CCN)O[C@H](CO)[C@H]1O (some centres unmarked) [ABX5025, Tobra-AHB-F-Gua 2-tBu-ethyl] | 16 µM (≈ 11.1 µg/mL) | 0.5 µM (≈ 0.348 µg/mL) |  |  |
| N=C(N)N[C@@H]1[C@@H](O)[C@@H](O[C@@H]2[C@@H](O)[C@H](O[C@H]3O[C@H](CN)[C@@H](O)[C@@H](O)[C@H]3N)[C@@H](N)C[C@H]2NC(=O)[C@@H](O)CCN)O[C@H](CO)[C@H]1O [ABX4005, 3′Epi-KanaB-AHB-Gua] |  |  | 32 to 64 µM | 1 to 2 µM |
| CNCCNC(=N)NC1[C@@H](O)C(OC2[C@@H](F)[C@H](O[C@H]3OC(CN)[C@@H](O)CC3N)C(N)C[C@H]2NC(=O)[C@@H](O)CCN)O[C@H](CO)[C@H]1O (some centres unmarked) [ABX5038, Tobra-AHB-F-Gua 2-(methylamino)ethyl] | 16 µM (≈ 10.7 µg/mL) | 0.5 µM (≈ 0.335 µg/mL) |  |  |
| N=C(NC[C@@H]1CCCN1)NC1[C@@H](O)C(OC2[C@@H](F)[C@H](O[C@H]3OC(CN)[C@@H](O)CC3N)C(N)C[C@H]2NC(=O)[C@@H](O)CCN)O[C@H](CO)[C@H]1O (stereo partly drawn) [ABX5026, Tobra-AHB-F-Gua (S) pyrrolidine-2-yl-methyl] | 32 µM (≈ 22.3 µg/mL) | 0.125 µM (≈ 0.087 µg/mL) |  |  |
| N=C(N)NC1[C@@H](O)C(OC2[C@@H](F)[C@H](O[C@H]3OC(CN)[C@@H](O)[C@H](O)C3N)C(N)C[C@H]2NC(=O)[C@@H](O)CCN)O[C@H](CO)[C@H]1O (some centres unmarked) [ABX4006, KanaB-AHB-F-Gua] | 16 to 32 µM (≈ 10.1 to 20.1 µg/mL) | 0.125 µM (≈ 0.0786 µg/mL) |  |  |
| NCCC(O)C(=O)NC1CC(N)C(OC2OC(CN)C(O)C(O)C2N)C(F)C1OC1OC(CO)C(O)C(N)C1O (centres unmarked) [ABX4007, KanaB-AHB-F] |  |  | 32 to 64 µM | 0.5 µM (≈ 0.293 µg/mL) |
| N=C(N)NC1[C@@H](O)C(OC2[C@@H](F)[C@H](O[C@H]3OC(CNCCO)[C@@H](O)CC3N)C(N)C[C@H]2NC(=O)[C@@H](O)CCN)O[C@H](CO)[C@H]1O (some centres unmarked) [ABX5045, 6N-2-hydroxy-ethyl-Tobra-AHB-F-Gua] | 8 to 16 µM (≈ 5.25 to 10.5 µg/mL) | 0.5 µM (≈ 0.328 µg/mL) |  |  |
